# According to paper PMC10058583, “Development of Novel Fluorinated Polyphenols as Selective Inhibitors of DYRK1A/B Kinase for Treatment of Neuroinflammatory Diseases including Parkinson’s Disease” (Pharmaceuticals, 2023):
# Where two headings read alike, the source gives them in different places.
# What was measured:
# DYRK2 = conditions: read-out: published IC50 DYRK2; cited from earlier work
# [1] = biological target: T1, human DYRK2 isoform 1 (6xHis-tagged) (Homo sapiens, UniProt Q92630); assay: ELISA-based non-radioactive kinase assay, DYRK2; format: biochemical
# T1 sequence (Q92630 74-601 limits assumed): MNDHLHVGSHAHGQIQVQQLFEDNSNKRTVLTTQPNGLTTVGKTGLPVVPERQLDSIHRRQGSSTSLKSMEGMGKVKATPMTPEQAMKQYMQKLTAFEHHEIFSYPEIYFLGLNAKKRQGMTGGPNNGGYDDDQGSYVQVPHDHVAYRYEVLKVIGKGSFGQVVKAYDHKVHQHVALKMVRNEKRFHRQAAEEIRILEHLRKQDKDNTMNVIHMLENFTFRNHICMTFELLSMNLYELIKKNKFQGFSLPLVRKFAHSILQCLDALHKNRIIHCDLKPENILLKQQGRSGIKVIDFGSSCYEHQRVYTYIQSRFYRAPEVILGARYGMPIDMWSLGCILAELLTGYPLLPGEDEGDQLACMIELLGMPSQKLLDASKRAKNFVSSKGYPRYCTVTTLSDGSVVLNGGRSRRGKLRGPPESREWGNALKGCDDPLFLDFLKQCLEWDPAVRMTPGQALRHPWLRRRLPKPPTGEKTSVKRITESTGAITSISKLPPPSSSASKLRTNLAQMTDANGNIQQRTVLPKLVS
# Protocol: (§1) DYRK1B was prepared from human DYRK1B isoform p65 as glutathione S-transferase fusion protein, and DYRK2 was prepared from human DYRK2 isoform 1 as 6xHis-tagged protein, as previously described.
# (§2) For DYRK2, the reactions were performed exactly as described for DYRK1A. For DYRK1B, the assays were similarly conducted but with 30 ng GST-DYRK1B and a kinase reaction time of 60 min.
# DYRK1B = conditions: read-out: published IC50 DYRK1B; cited from earlier work
# [2] = biological target: T2, 6xHis-tagged rat-truncated DYRK1A (residues 1-497) (Rattus norvegicus, UniProt Q63470); assay: ELISA-based non-radioactive kinase assay, DYRK1A; format: biochemical
# T2 construct: 6xHis-tagged rat-truncated DYRK1A (residues 1-497); 6xHis; made in house
# DYRK1A = conditions: cited from earlier work
# [3] = biological target: T3, human DYRK1B isoform p65 (GST fusion) (Homo sapiens, UniProt Q9Y463); assay: ELISA-based non-radioactive kinase assay, DYRK1B; format: biochemical; conditions: 30 ng GST-DYRK1B, 60 min reaction
# T3 construct: made in house
# Protocol: as §1, §2
# [4] = Pharmacokinetic studies in C57BL/6 mice (plasma and tissues); format: in vivo, mouse; conditions: PO (100 mg/kg)
# Protocol: To overcome the generally poor PK profile of catechins, we developed a proprietary formulation that allows for the delivery of these drugs in high concentrations for oral (PO) or intranasal (IN) use. Our liquid formulation is based on the solubilizer and penetration enhancer (2-hydroxypropyl)-β-cyclodextrin (HP-β-CD), PEG-400, and water. This vehicle allows us to achieve high drug concentration in dosing solution (up to 20% w/w) when needed. PK studies were conducted for 1c in adult male and female C57BL/6 mice (n = 3/sex/time point) using (1) a single IV dose (5 mg/kg), (2) an IN dose (60 mg/kg, 5 µL of a clear solution/nostril/twice), and (3) a single PO dose (100 mg/kg). We analyzed the concentration of the drug in several tissues, including the brain, lungs, liver, and plasma. We observed that this class of molecules is stable in circulation; however, when the tissues are harvested for bioanalytical work, the drug undergoes rapid degradation, probably because of the direct contact with oxygen and metals, which catalyzes its rapid degradation/oxidation. We were able to stabilize the drug in blood by the immediate addition of ascorbic acid and TCEP [29]; however, the same was not possible with solid organs such as the brain and liver, which need to be collected through surgery and homogenized before any stabilizing agent can be added. Therefore, tissue PK data tend to vary.
# C57BL/6J mice were given a single dose of drug via the IN or PO route. […] For PO delivery, we replaced water with saline. The volume for IN delivery was 5 µL/nostril, and the volume used for oral delivery was 10 mL/kg. After sacrifice, blood (500 µL) was collected into K2EDTA microtubes and kept on ice all times (must be centrifuged within 30 min of collection). Blood was centrifuged in EDTA vacuum at 4 °C at 15,000× g for 4 min; ~250 µL of plasma was collected into polyethylene tubes containing 50 µL of AA/TCEP stabilizing solution (20 mM ascorbic acid and 13 mM TCEP in 50 mM K2HPO4 buffer; the pH of the solution was adjusted to 6.5 using 2 M NaOH). Then, 200 µL of the collected plasma was mixed with (1) 24 µL of a solution of 10% ascorbic acid and 0.1% EDTA in 40 mM NaH2PO4; (2) 40 µL of 50 mM sodium phosphate (pH 7.4); (3) 500 units of β-D-glucuronidase type X-A from Escherichia coli (Sigma Chemical Co, St Louis, MO, USA), and (4) 4 units of sulfatase type VIII from abalone entrails (Sigma Chemical Co). The mixture was incubated at 37 °C for 45 min. Plasma was then extracted by the addition of 0.5 mL ACN; the mixture was vortex-mixed for 2 min, then snap-frozen with isopropanol/carbon dioxide dry ice, and the upper layer of ACN was removed. The process was repeated another 2 times. The ACN fractions were pooled into a polyethylene tube kept on ice. The combined fractions were evaporated under a gentle stream of nitrogen at ambient temperature. The residue obtained after evaporation was reconstituted in 200 µL of 75 mM citric acid//25 mM ammonium acetate: ACN (75:25 by vol), and vortexed vigorously for 5 min, and 20 µL of the resulting solution was injected into the LC-MS/MS column.
# Drug analysis in tissues: About ~0.4 g of the tissue was homogenized with 1 mL of ice-cold 0.4 M sodium phosphate buffer containing 6 mg of ascorbic acid and 0.5 mg of Na2EDTA (final pH of 6.5). After centrifugation at 4 °C at 15,000× g for 4 min, the supernatant was collected into polyethylene tubes containing 50 µL of the AA/TCEP stabilizing solution. Then 1 U of sulfatase and 250 U of β-glucuronidase were added to the abovementioned homogenized mixture. Samples were incubated at 37 °C for 45 min, then extracted, dried, and resuspended in a manner similar to that for plasma. Samples were then analyzed by LC-MS/MS.
# [5] = tested on: LPS-induced inflammation in C57BL/6J mice; assay: LPS-induced inflammation model; format: in vivo, mouse; conditions: positive control 1 mg/kg PO, LPS i.p. 750 µg/kg
# Protocol: Neuroinflammation is an important factor contributing to cognitive impairment and neurodegenerative diseases such as PD, and the administration of LPS is frequently used to study neuroinflammation-associated diseases in mice.
# Each group consisted of six male mice. […] Animals were pretreated for 3 days with the drug of choice; then, treatment with LPS commenced on day 0, and on the 5th day of LPS treatment, the drug was administered half an hour before LPS injection. One hour after LPS treatment, the animals were anesthetized with a mixture of ketamine, xylazine 2%, atropine, and saline (4:2.5:1:2.5). The body temperature of mice under anesthesia was maintained by applying a heating blanket and monitored using a rectal thermometer. After anesthesia, the animals underwent cardiac perfusion with ice-cold saline for three minutes (3 mL/minute via peristaltic pump) via the left ventricle. The right atrium was cut as an outflow route. The right hemisphere was post-fixed overnight in 4% PFA in PBS at 4 °C and stored in 1xPBS containing 0.1% (v/w) sodium azide at 4 °C. The left hemisphere, hippocampus, cortex, midbrain, and brainstem were microdissected, immersed in liquid nitrogen in separate tubes (with one-fifth of the rest of the brain tissue), and stored in microfuge tubes at −80°. TNFα (in both plasma and the hippocampus) was analyzed with ELISA, and the p-tau (AT-8 antibody) level was recorded in the hippocampus and cortex with WB.
# [6] = both sexes, C57BL/6, mouse, plasma
# T3 sequence (Q9Y463 1-589 isoform Q9Y463-2): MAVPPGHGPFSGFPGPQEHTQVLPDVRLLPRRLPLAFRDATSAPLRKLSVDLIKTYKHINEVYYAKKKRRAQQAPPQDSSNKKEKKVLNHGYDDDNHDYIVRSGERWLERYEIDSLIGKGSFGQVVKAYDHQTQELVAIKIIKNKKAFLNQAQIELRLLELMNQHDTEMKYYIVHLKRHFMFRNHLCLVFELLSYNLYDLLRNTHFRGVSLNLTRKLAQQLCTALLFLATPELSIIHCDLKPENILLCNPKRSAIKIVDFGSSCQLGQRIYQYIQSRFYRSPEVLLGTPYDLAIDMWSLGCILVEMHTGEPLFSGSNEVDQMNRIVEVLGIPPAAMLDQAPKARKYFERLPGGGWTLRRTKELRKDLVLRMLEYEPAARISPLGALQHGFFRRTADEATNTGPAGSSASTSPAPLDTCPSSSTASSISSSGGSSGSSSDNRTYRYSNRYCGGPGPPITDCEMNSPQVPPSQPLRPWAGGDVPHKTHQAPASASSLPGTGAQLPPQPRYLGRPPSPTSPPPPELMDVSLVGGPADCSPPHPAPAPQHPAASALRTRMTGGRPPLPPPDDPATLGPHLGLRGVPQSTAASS
structure (smiles),measurement,setting,value
COc1cc(N2CCN(C)CC2)ccc1Nc1nccc(-c2cn(C)c3cnccc23)n1 [AZ-191],IC50,DYRK2,1890 nM
same,IC50,[1],1720 nM
same,IC50,DYRK1B,17 nM
same,IC50,[2],98 nM
same,IC50,DYRK1A; read-out: published IC50 DYRK1A,88 nM
O=C(O[C@@H]1Cc2c(O)cc(O)cc2O[C@H]1c1cc(O)c(O)c(O)c1)c1cc(O)c(O)c(O)c1F [Compound 1a],IC50,[1],258 nM
same,IC50,[2]; read-out: DYRK1A IC50,35 nM
same,IC50,[3],42 nM
O=C(O[C@@H]1Cc2c(O)cc(O)cc2O[C@H]1c1cc(O)c(O)c(O)c1)c1c(F)c(O)c(O)c(O)c1F [Compound 1b],bioavailability (in words),[4],much lower than that of 1c
same,Tlast,[4]; plasma,24 h
same,AUC(0-inf),[4]; [6],472 ng·h/mL
same,AUC(0-t),[4]; [6],379 ng·h/mL
same,Cmax,[4]; [6],131 ng/mL
same,Tmax,[4]; [6],0.5 h
same,half-life,[4]; [6],12.7 h
same,IC50,[1],181 nM
same,improvement in anti-DYRK1A activity compared to EGCG,[2],eightfold
same,IC50,[2]; read-out: DYRK1A IC50,28 nM
same,IC50,[3],45 nM
COc1c(O)c(O)cc(C(=O)O[C@@H]2Cc3c(O)cc(O)cc3O[C@H]2c2cc(O)c(O)c(O)c2)c1F [Compound 1d],IC50,[2]; read-out: DYRK1A IC50,152 nM
COc1c(O)c(O)c(F)c(C(=O)O[C@@H]2Cc3c(O)cc(O)cc3O[C@H]2c2cc(O)c(O)c(O)c2)c1F [Compound 1e],IC50,[2]; read-out: DYRK1A IC50,125 nM
O=C(O[C@@H]1Cc2c(O)cc(O)cc2O[C@H]1c1cc(O)c(O)c(O)c1)c1cc(O)c(O)c(OC(F)F)c1 [Compound 1f],IC50,[2]; read-out: DYRK1A IC50,252 nM
O=C(O[C@@H]1Cc2c(O)cc(O)cc2O[C@H]1c1cc(O)c(O)c(O)c1)c1cc(OC(F)F)c(O)c(O)c1F [Compound 1g],IC50,[2]; read-out: DYRK1A IC50,136 nM
CC(C)Oc1c(O)c(O)c(F)c(C(=O)O[C@@H]2Cc3c(O)cc(O)cc3O[C@H]2c2cc(O)c(O)c(O)c2)c1F [Compound 1h],IC50,[2]; read-out: DYRK1A IC50,356 nM
"C[C@@H]1C[C@H]2[C@@H]3CCC4=CC(=O)C=C[C@]4(C)[C@@]3(F)[C@@H](O)C[C@]2(C)[C@@]1(O)C(=O)CO [Dexamethasone, reference compound]",efficacy in plasma,[5],high efficacy
"O=C(O[C@@H]1Cc2c(O)cc(O)cc2O[C@@H]1c1cc(O)c(O)c(O)c1)c1cc(O)c(O)c(O)c1 [EGCG, epigallocatechin gallate, reference compound]",AUC(0-inf),[4]; [6],395 ng·h/mL
same,AUC(0-t),[4]; [6],360 ng·h/mL
same,Cmax,[4]; [6],55 ng/mL
same,half-life,[4]; [6],5.02 h
same,bioavailability,"[4]; both sexes, C57BL/6, mouse, plasma, po, 100 mg/kg, plasma, read-out: F (absolute bioavailability)",2%
same,IC50,[1],1490 nM
same,IC50,"DYRK1A; allosteric inhibitor, read-out: DYRK1A in vitro IC50",300 to 400 nM
"O=C(O[C@@H]1Cc2c(O)cc(O)cc2O[C@H]1c1cc(O)c(O)c(O)c1)c1cc(O)c(O)c(O)c1 [GCG, reference compound]",IC50,[1],574 nM
"COc1cc(C(=O)OC2Cc3c(O)cc(O)cc3OC2c2cc(O)c(O)c(O)c2)cc(O)c1O (stereo not shown) [GCG-3”OMe, reference compound]",IC50,[2]; read-out: DYRK1A IC50,206 nM
